Measurements published in patent US20230357152A1 (priority 2020, published 2023).

system: Septoria tritici; assay: microbe, parasite or virus in culture; type: cell-based; details: Zymoseptoria tritici, 168 h

`CNC(=O)/C(=N/OC)c1cccc(C)c1CO/N=C(\C)c1cc(C(F)(F)F)nc(C)n1` [Example 58] and `CNC(=O)/C(=N/OC)c1cccc(C)c1CO/N=C(\C)c1nccc(C(F)(F)F)n1` [Example 73] are the same in activity at 31 ppm: 21% for the first, 21% for the second.

First: CNC(=O)/C(=N/OC)c1cccc(C)c1CO/N=C(\C)c1cc2ccccc2cn1 [Example 67]
Second: CNC(=O)/C(=N/OC)c1cccc(C)c1CO/N=C(\C)c1nccc2ccccc12 [Example 45]
The activity at 31 ppm of the first is lower: 5% for the first, 6% for the second.

First: CNC(=O)/C(=N/OC)c1cccc(C)c1CO/N=C(\C)c1cc(C)ccn1 [Example 26]
Second: CNC(=O)/C(=N/OC)c1cccc(C)c1CO/N=C(\C)c1cccc(OC)n1 [Example 3]
The activity at 31 ppm of the first is higher: 7% for the first, 4% for the second.

Compared with `CO/N=C(/C(=O)OC)c1cccc(C)c1CO/N=C(\C)c1cn(C)nc1C(F)(F)F` [Example 51], `CO/N=C(/C(=O)OC)c1cccc(C)c1CO/N=C(\C)c1ncsc1C(F)(F)F` [Example 40] is lower in activity at 31 ppm: 3% for the first, 0% for the second.

First: CO/N=C(/C(=O)OC)c1cccc(C)c1CO/N=C(\C)c1nccc2ccccc12 [Example 44]
Second: CO/N=C(/C(=O)OC)c1cccc(C)c1CO/N=C(\C)c1cccc(C(F)(F)F)n1 [Example 1]
The activity at 31 ppm of the first is lower: 2% for the first, 10% for the second.

Compared with `CNC(=O)/C(=N/OC)c1cccc(C(F)(F)F)c1CO/N=C(\C)c1cc(-c2ccc(Cl)cc2)on1` [Example 17], `CO/N=C(/C(=O)OC)c1cccc(C)c1CO/N=C(\C)c1nccc(C(F)(F)F)n1` [Example 71] is lower in activity at 31 ppm: 1% for the first, 0% for the second.

With `CO/N=C(/C(=O)OC)c1cccc(C)c1CO/N=C(\C)c1cnc(C)c(F)c1` [Example 100] the activity at 31 ppm was 19%.

system: Phytophthora infestans; assay: microbe, parasite or virus in culture; type: cell-based; details: 168 h, read-out: Fungal growth at 31 ppm (%) PHYTIN

`CO/N=C(/C(=O)OC)c1cccc(C)c1CO/N=C(\C)c1ccc(Cl)nn1` [Example 91] and `CO/N=C(/C(=O)OC)c1cccc(C)c1CO/N=C(\C)c1cncn1C` [Example 102] are the same in activity at 31 ppm: 0% for the first, 0% for the second.

Going from `CNC(=O)/C(=N/OC)c1cccc(C)c1CO/N=C(\C)c1cc(C(F)(F)F)nc(C)n1` [Example 58] to `CNC(=O)/C(=N/OC)c1cccc(C)c1CO/N=C(\C)c1nccc(C(F)(F)F)n1` [Example 73], the activity at 31 ppm falls from 11% to 1%.

Going from `CNC(=O)/C(=N/OC)c1cccc(C)c1CO/N=C(\C)c1cc(-c2ccc(Cl)cc2)on1` [Example 20] to `CNC(=O)/C(=N/OC)c1cccc(C)c1CO/N=C(\C)c1cc(-c2ccc(Cl)cc2)sn1` [Example 8], the activity at 31 ppm rises from 3% to 6%.

`CNC(=O)/C(=N/OC)c1cccc(C)c1CO/N=C(\C)c1cc2ccccc2cn1` [Example 67] and `CNC(=O)/C(=N/OC)c1cccc(C)c1CO/N=C(\C)c1nccc2ccccc12` [Example 45] are the same in activity at 31 ppm: 0% for the first, 0% for the second.

Compared with `CNC(=O)/C(=N/OC)c1cccc(C)c1CO/N=C(\C)c1cc(-c2ccccc2)sn1` [Example 38], `CNC(=O)/C(=N/OC)c1cccc(C)c1CO/N=C(\C)c1cccc(OC)n1` [Example 3] is lower in activity at 31 ppm: 6% for the first, 0% for the second.

`CNC(=O)/C(=N/OC)c1cccc(C)c1CO/N=C(\C)c1cc(C)ccn1` [Example 26] and `CNC(=O)/C(=N/OC)c1cccc(C)c1CO/N=C(\C)c1cc(OC)ccn1` [Example 56] are the same in activity at 31 ppm: 0% for the first, 0% for the second.

`CNC(=O)/C(=N/OC)c1cccc(C)c1CO/N=C(\C)c1cnc(C)c(F)c1` [Example 101] and `CO/N=C(/C(=O)OC)c1cccc(C)c1CO/N=C(\C)c1cnc(C)c(F)c1` [Example 100] are the same in activity at 31 ppm: 0% for the first, 0% for the second.

First: CO/N=C(/C(=O)OC)c1cccc(C)c1CO/N=C(\C)c1ccc(C#CC2CC2)nc1 [Example 68]
Second: CO/N=C(/C(=O)OC)c1cccc(C)c1CO/N=C(\C)c1nccc2ccccc12 [Example 44]
The activity at 31 ppm of the first is lower: 3% for the first, 15% for the second.

`CNC(=O)/C(=N/OC)c1cccc(C(F)(F)F)c1CO/N=C(\C)c1cc(-c2ccc(Cl)cc2)on1` [Example 17] and `CO/N=C(/C(=O)OC)c1cccc(C)c1CO/N=C(\C)c1nccc(C(F)(F)F)n1` [Example 71] are the same in activity at 31 ppm: 0% for the first, 0% for the second.

`CO/N=C(/C(=O)OC)c1cccc(C)c1CO/N=C(\C)c1ncsc1C(F)(F)F` [Example 40] gave an activity at 31 ppm of 8%.

system: Fusarium culmorum; assay: microbe, parasite or virus in culture; type: cell-based; details: 168 h

Going from `CO/N=C(/C(=O)OC)c1cccc(C)c1CO/N=C(\C)c1ccc(Cl)nn1` [Example 91] to `CO/N=C(/C(=O)OC)c1cccc(C)c1CO/N=C(\C)c1cc(-c2ccc(Cl)cc2)sn1` [Example 7], the activity at 31 ppm falls from 16% to 11%.

Compared with `CNC(=O)/C(=N/OC)c1cccc(C)c1CO/N=C(\C)c1cc(C(F)(F)F)nc(C)n1` [Example 58], `CNC(=O)/C(=N/OC)c1cccc(C)c1CO/N=C(\C)c1nccc(C(F)(F)F)n1` [Example 73] is lower in activity at 31 ppm: 17% for the first, 13% for the second.

First: CNC(=O)/C(=N/OC)c1cccc(C)c1CO/N=C(\C)c1cc(-c2ccc(Cl)cc2)on1 [Example 20]
Second: CNC(=O)/C(=N/OC)c1cccc(C(F)(F)F)c1CO/N=C(\C)c1cc(-c2ccc(Cl)cc2)on1 [Example 17]
The activity at 31 ppm of the first is higher: 17% for the first, 14% for the second.

Going from `CNC(=O)/C(=N/OC)c1cccc(C)c1CO/N=C(\C)c1cc2ccccc2cn1` [Example 67] to `CNC(=O)/C(=N/OC)c1cccc(C)c1CO/N=C(\C)c1nccc2ccccc12` [Example 45], the activity at 31 ppm falls from 9% to 4%.

Going from `CNC(=O)/C(=N/OC)c1cccc(C)c1CO/N=C(\C)c1cc(-c2ccccc2)sn1` [Example 38] to `CO/N=C(/C(=O)OC)c1cccc(C)c1CO/N=C(\C)c1cc(-c2cccc(C(F)(F)F)c2)sn1` [Example 35], the activity at 31 ppm rises from 16% to 20%.

Compared with `CNC(=O)/C(=N/OC)c1cccc(C)c1CO/N=C(\C)c1cc(C)ccn1` [Example 26], `CNC(=O)/C(=N/OC)c1cccc(C)c1CO/N=C(\C)c1cc(OC)ccn1` [Example 56] is lower in activity at 31 ppm: 12% for the first, 11% for the second.

Going from `CNC(=O)/C(=N/OC)c1cccc(C)c1CO/N=C(\C)c1cnc(C)c(F)c1` [Example 101] to `CO/N=C(/C(=O)OC)c1cccc(C)c1CO/N=C(\C)c1cnc(C)c(F)c1` [Example 100], the activity at 31 ppm falls from 15% to 12%.

Compared with `CO/N=C(/C(=O)OC)c1cccc(C)c1CO/N=C(\C)c1cn(C)nc1C(F)(F)F` [Example 51], `CO/N=C(/C(=O)OC)c1cccc(C)c1CO/N=C(\C)c1cc(-c2cccc(C(F)(F)F)c2)on1` [Example 19] is higher in activity at 31 ppm: 8% for the first, 20% for the second.

First: CO/N=C(/C(=O)OC)c1cccc(C)c1CO/N=C(\C)c1ccc(C#CC2CC2)nc1 [Example 68]
Second: CNC(=O)/C(=N/OC)c1cccc(C)c1CO/N=C(\C)c1cccc(OC)n1 [Example 3]
The activity at 31 ppm of the first is higher: 13% for the first, 6% for the second.

Going from `CNC(=O)/C(=N/OC)c1cccc(C)c1CO/N=C(\C)c1cncc(/C(C)=N/OC)n1` [Example 83] to `CO/N=C(/C(=O)OC)c1cccc(C(F)(F)F)c1CO/N=C(\C)c1cc(-c2ccc(Cl)cc2)on1` [Example 16], the activity at 31 ppm falls from 21% to 19%.
